Test results reported in ChEMBL document CHEMBL3797123, “Amino(oxo)acetate moiety: A new functional group to improve the cytotoxicity of betulin derived carbamates” (Bioorg Med Chem Lett, 2016).

How the values were obtained:
Format in all cases: functional, cell-based
HT-29 = experiment: Cytotoxicity against human HT-29 cells after 96 hrs by SRB assay; conditions: HT-29, 96 h
A2780 = experiment: Cytotoxicity against human A2780 cells after 96 hrs by SRB assay; conditions: A2780, 96 h
MCF7 = experiment: Cytotoxicity against human MCF7 cells after 96 hrs by SRB assay; conditions: MCF7, 96 h
HeLa = experiment: Cytotoxicity against human HeLa cells after 96 hrs by SRB assay
[1] = Cytotoxicity against human 518A2 cells after 96 hrs by SRB assay; conditions: 518A2, 96 h
A549 = experiment: Cytotoxicity against human A549 cells after 96 hrs by SRB assay; conditions: A549, 96 h

| Structure (SMILES) | EC50 (HT-29) [µM] | EC50 (A2780) [µM] | EC50 (MCF7) [µM] | EC50 (HeLa) [µM] | EC50 [1] [µM] | EC50 (A549) [µM] |
| --- | --- | --- | --- | --- | --- | --- |
| C=C(C)[C@@H]1CC[C@]2(CO)CC[C@]3(C)[C@H](CC[C@@H]4[C@@]5(C)CC[C@H](OC(C)=O)C(C)(C)[C@@H]5CC[C@]43C)[C@@H]12 | > 30 | 28.5 | 20.2 | > 30 | > 30 | > 30 |
| C=C(C)[C@@H]1CC[C@]2(COC(=O)NCCCCCC)CC[C@]3(C)[C@H](CC[C@@H]4[C@@]5(C)CC[C@H](O)C(C)(C)[C@@H]5CC[C@]43C)[C@@H]12 | – | 7.6 | – | – | 5.6 | – |
| C=C(C)[C@@H]1CC[C@]2(COC(=O)NCC)CC[C@]3(C)[C@H](CC[C@@H]4[C@@]5(C)CC[C@H](OC(=O)C(N)=O)C(C)(C)[C@@H]5CC[C@]43C)[C@@H]12 | 15.3 | 10 | 11.2 | 14.1 | 11.4 | 13.7 |
| C=C(C)[C@@H]1CC[C@]2(COC(=O)NCCCC)CC[C@]3(C)[C@H](CC[C@@H]4[C@@]5(C)CC[C@H](OC(=O)C(N)=O)C(C)(C)[C@@H]5CC[C@]43C)[C@@H]12 | 10.1 | 6.4 | 10 | 11.2 | 7.9 | 9.1 |
| C=C(C)[C@@H]1CC[C@]2(COC(=O)NCCCCCC)CC[C@]3(C)[C@H](CC[C@@H]4[C@@]5(C)CC[C@H](OC(=O)C(N)=O)C(C)(C)[C@@H]5CC[C@]43C)[C@@H]12 | 7.3 | 2 | 5.6 | 10.1 | 6.5 | 7.4 |
| C=C(C)[C@@H]1CC[C@]2(COC(=O)NCCC)CC[C@]3(C)[C@H](CC[C@@H]4[C@@]5(C)CC[C@H](OC(=O)C(N)=O)C(C)(C)[C@@H]5CC[C@]43C)[C@@H]12 | 12.8 | 7 | 12.5 | 12.8 | 9.9 | 10.5 |
| C=C(C)[C@@H]1CC[C@]2(COC(=O)Nc3ccccc3)CC[C@]3(C)[C@H](CC[C@@H]4[C@@]5(C)CC[C@H](OC(=O)C(N)=O)C(C)(C)[C@@H]5CC[C@]43C)[C@@H]12 | 21.4 | 17.3 | 17.6 | 10.5 | 15.3 | 20.4 |
| C=C(C)[C@@H]1CC[C@]2(COC(C)=O)CC[C@]3(C)[C@H](CC[C@@H]4[C@@]5(C)CC[C@H](OC(C)=O)C(C)(C)[C@@H]5CC[C@]43C)[C@@H]12 [BETULIN DIACETATE] | 25.7 | 20.3 | – | > 30 | – | 21.5 |
| C=C(C)[C@@H]1CC[C@]2(C(=O)O)CC[C@]3(C)[C@H](CC[C@@H]4[C@@]5(C)CC[C@H](O)C(C)(C)[C@@H]5CC[C@]43C)[C@@H]12 [BETULINIC ACID] | – | – | – | 8.8 | – | – |
| C=C(C)[C@@H]1CC[C@]2(CO)CC[C@]3(C)[C@H](CC[C@@H]4[C@@]5(C)CC[C@H](O)C(C)(C)[C@@H]5CC[C@]43C)[C@@H]12 [BETULIN] | > 30 | – | – | > 30 | – | – |
